According to PubChem BioAssay (NCI):
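96-well plates; 48 h exposure; 5 concentrations. Endpoints by linear interpolation between flanking doses. Not reached: highest tested concentration assigned. Definition used: TGI = concentration required for complete inhibition of growth.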

Legend:
Experiment in all cases: NCI tumour cell line growth inhibition, 48 h
[1] = tested on: LXFL 529 NSCLC
[2] = tested on: LOX IMVI melanoma
[3] = tested on: A549 NSCLC
[4] = tested on: KM20L2 colon
[5] = tested on: OVCAR-5 ovarian
[6] = tested on: HOP-92 NSCLC
[7] = tested on: SF-539 CNS
[8] = tested on: M19-MEL melanoma
[9] = tested on: NCI-H522 lung
[10] = tested on: SF-268 CNS
[11] = tested on: SN12C renal
[12] = tested on: DMS 273 small cell lung
[13] = tested on: RPMI-8226 leukemia
[14] = tested on: HCT-116 colon
[15] = tested on: UO-31 renal
[16] = tested on: A498 renal
[17] = tested on: SNB-19 CNS
[18] = tested on: HOP-62 NSCLC
[19] = tested on: SK-OV-3 ovarian
[20] = tested on: HCT-15 colon
[21] = tested on: SK-MEL-28 melanoma
[22] = tested on: EKVX NSCLC
[23] = tested on: NCI-H23 lung
[24] = tested on: SK-MEL-2 melanoma
[25] = tested on: DMS 114 small cell lung
[26] = tested on: CAKI-1 renal
[27] = tested on: IGROV1 ovarian
[28] = tested on: 786-0 renal
[29] = tested on: XF 498 CNS
[30] = tested on: K-562 leukemia
[31] = tested on: SF-295 CNS
[32] = tested on: NCI-H460 lung
[33] = tested on: SNB-78 CNS
[34] = tested on: SNB-75 CNS
[35] = tested on: OVCAR-8 ovarian
[36] = tested on: OVCAR-4 ovarian
[37] = tested on: SK-MEL-5 melanoma
[38] = tested on: HL-60(TB) leukemia
[39] = tested on: SW-620 colon
[40] = tested on: KM12 colon
[41] = tested on: DLD-1 colon
[42] = tested on: UACC-257 melanoma
[43] = tested on: HOP-18 NSCLC
[44] = tested on: TK-10 renal
[45] = tested on: M14 melanoma
[46] = tested on: U251 CNS
[47] = tested on: COLO 205 colon
[48] = tested on: NCI-H226 lung
[49] = tested on: ACHN renal
[50] = tested on: UACC-62 melanoma
[51] = tested on: HT29 colon
[52] = tested on: HCC-2998 colon
[53] = tested on: MALME-3M melanoma
[54] = tested on: MOLT-4 leukemia
[55] = tested on: CCRF-CEM leukemia
[56] = tested on: BT-549 breast
[57] = tested on: T-47D breast
[58] = tested on: MDA-N
[59] = tested on: DU-145 prostate
[60] = tested on: MDA-MB-231 breast
[61] = tested on: MCF7 breast
[62] = tested on: OVCAR-3 ovarian
[63] = tested on: MDA-MB-435
[64] = tested on: RXF 393 renal
[65] = tested on: PC-3 prostate
[66] = tested on: SR leukemia
[67] = tested on: NCI/ADR-RES ovarian
[68] = tested on: HS 578T breast

COC(=O)[C@H]1N[C@@H](C(=O)OC)C23CCC[C@H]2CC[C@]1(C(OC)OC)C3
TGI [1]: > 100 µM | TGI [2]: > 100 µM | TGI [3]: > 100 µM | TGI [4]: > 100 µM | TGI [5]: > 100 µM | TGI [6]: > 100 µM | TGI [7]: > 100 µM | TGI [8]: > 100 µM | TGI [9]: > 100 µM | TGI [10]: > 100 µM | TGI [11]: > 100 µM | TGI [12]: > 100 µM | TGI [13]: > 100 µM | TGI [14]: > 100 µM | TGI [15]: > 100 µM | TGI [16]: > 100 µM | TGI [17]: > 100 µM | TGI [18]: > 100 µM | TGI [19]: > 100 µM | TGI [20]: > 100 µM | TGI [21]: > 100 µM | TGI [22]: > 100 µM | TGI [23]: > 100 µM | TGI [24]: > 100 µM | TGI [25]: > 100 µM | TGI [26]: > 100 µM | TGI [27]: > 100 µM | TGI [28]: > 100 µM | TGI [29]: > 100 µM | TGI [30]: > 100 µM | TGI [31]: > 100 µM | TGI [32]: > 100 µM | TGI [33]: > 100 µM | TGI [34]: > 100 µM | TGI [35]: > 100 µM | TGI [36]: > 100 µM | TGI [37]: > 100 µM | TGI [38]: > 100 µM | TGI [39]: > 100 µM | TGI [40]: > 100 µM | TGI [41]: > 100 µM | TGI [42]: > 100 µM | TGI [43]: > 100 µM | TGI [44]: > 100 µM | TGI [45]: > 100 µM | TGI [46]: > 100 µM | TGI [47]: > 100 µM | TGI [48]: > 100 µM | TGI [49]: > 100 µM | TGI [50]: > 100 µM | TGI [51]: > 100 µM | TGI [52]: > 100 µM | TGI [53]: > 100 µM | TGI [54]: > 100 µM | TGI [55]: > 100 µM

Cc1ccc(NC2=N/C(=C/c3ccco3)C(Cl)=N2)cc1
TGI [2]: > 100 µM | TGI [3]: > 100 µM | TGI [5]: > 100 µM | TGI [6]: > 100 µM | TGI [7]: > 100 µM | TGI [9]: > 100 µM | TGI [10]: > 100 µM | TGI [56]: > 100 µM | TGI [57]: > 100 µM | TGI [11]: > 100 µM | TGI [58]: > 100 µM | TGI [13]: > 100 µM | TGI [14]: > 100 µM | TGI [15]: > 100 µM | TGI [59]: > 100 µM | TGI [16]: > 100 µM | TGI [17]: > 100 µM | TGI [60]: > 100 µM | TGI [18]: > 100 µM | TGI [61]: > 100 µM | TGI [62]: > 100 µM | TGI [19]: > 100 µM | TGI [20]: > 100 µM | TGI [21]: > 100 µM | TGI [22]: > 100 µM | TGI [63]: > 100 µM | TGI [23]: > 100 µM | TGI [24]: > 100 µM | TGI [26]: > 100 µM | TGI [27]: > 100 µM | TGI [28]: > 100 µM | TGI [30]: > 100 µM | TGI [31]: > 100 µM | TGI [32]: > 100 µM | TGI [34]: > 100 µM | TGI [35]: > 100 µM | TGI [36]: > 100 µM | TGI [37]: > 100 µM | TGI [38]: > 100 µM | TGI [39]: > 100 µM | TGI [64]: > 100 µM | TGI [65]: > 100 µM | TGI [40]: > 100 µM | TGI [42]: > 100 µM | TGI [66]: > 100 µM | TGI [44]: > 100 µM | TGI [45]: > 100 µM | TGI [46]: > 100 µM | TGI [47]: > 100 µM | TGI [48]: > 100 µM | TGI [67]: > 100 µM | TGI [49]: > 100 µM | TGI [50]: > 100 µM | TGI [68]: > 100 µM | TGI [51]: > 100 µM | TGI [52]: > 49.7 µM | TGI [53]: > 100 µM | TGI [54]: > 100 µM | TGI [55]: > 100 µM
